Data reported in patent publication US11529511B2, “Using alternating electric fields to increase cell membrane permeability” (The Board of Trustees of the Leland Stanford Junior …, priority 2018, dated 2022).

Key:
[1] = tested on: U87-MG/eGFP-fLuc cells; conditions: TTFields 4 V/cm, 200 kHz, 0.5-24 h vs. no TTFields
Method: U87-MG/eGFP-fLuc cells were seeded on Thermanox glass coverslips, allowed to settle and grow, and then subjected to either TTFields or no TTFields.
The coverslips were transferred to a ceramic dish of the Inovitro™ system, which in turn was mounted onto Inovitro™ base plates (Novocure Ltd., Haifa, Israel). Tumor treating fields at 200 kHz (1-4 V/cm) were applied through an Inovitro™ power generator. Incubator ambient temperatures spanned 20-27° C. with a target temperature of 37° C. in the ceramic dishes upon application of the TTFields. Duration of TTFields exposure lasted anywhere from 0.5 to 72 h, after which coverslips were removed and processed for the appropriate bioassays (see below). For reversibility experiments, the TTFields-exposed coverslips were transferred to a regular incubator without TTFields exposure for 24 h (off TTFields period to assess for reversibility of the TTFields effect on cell membrane permeability) prior to processing for the appropriate bioassays. Culture media were exchanged manually every 24 h throughout the experiments to account for evaporation. Corresponding control experiments (no TTFields) were done by placing equivalent coverslips within 6-well or 12-well plates into a conventional humidified tissue culture incubator (37° C., 95% air/5% CO2) and cells grown in parallel with the TTFields-exposed coverslips. […]

[2] = tested on: U87-MG/eGFP-fLuc cells; experiment: Reversibility of the TTFields effect on uptake (BLI, PpIX, Dextran-FITC fluorescence); assay type: cell-based, human; conditions: TTFields 24 h vs. none vs. TTFields 24 h followed by 24 h no TTFields
Description: All experimental conditions were done in triplicate.

[3] = tested on: GBM39/Luc cells; experiment: Drug sensitivity and synergy with TTFields; assay type: cell-based, human; conditions: TTFields for 3 days vs. no TTFields
[4] = target: T1, firefly luciferase (Photinus pyralis, UniProt P08659); experiment: Activity of purified firefly luciferase exposed to TTFields; assay type: biochemical; conditions: TTFields vs. no TTFields, p<0.01
T1 construct: purchased Sigma Aldrich Inc SRE0045-2MG

[5] = tested on: MDA-MB-435 human melanoma cell line cells; experiment: Permeability to 7-AAD under alternating electric fields, flow cytometry; assay type: cell-based; conditions: 150 kHz, 24 h
Method: After this 15 minute period, alternating electric field application was terminated and the cells were incubated at room temperature for an additional 15 minutes.
After this 24 hour period, the alternating electric fields were turned off for 15 minutes, after which the 7-AAD was added. After waiting an additional 15 minutes, the percentage of cells with increased accumulation of the fluorescent 7-AAD was determined using flow cytometry.

[6] = tested on: U87-MG cells; experiment: Timing of permeability to 7-AAD after cessation of the field, flow cytometry; assay type: cell-based, human; conditions: 300 kHz, 1.62 V/cm RMS, 24 h; 7-AAD added 15 minutes prior to cessation of the field
Method: FIG. 7D depicts the results of an experiment to test how quickly the permeability drops back down after cessation of the alternating electric fields. More specifically, 7-Aminoactinomycin D (7-AAD) is a fluorescent chemical compound with a strong affinity for DNA. […] 7-AAD was introduced into samples at five different times: 15 minutes prior to the cessation of the alternating electric field; immediately after cessation of the alternating electric field; and 15, 30, and 60 minutes after cessation of the alternating electric field. In each case, the cells were incubated with 7-AAD for 30 minutes after introduction of the 7-AAD, followed by flow cytometry analysis of the percentage of cells with increased accumulation of the fluorescent 7-AAD for each of the different timings.

[7] = tested on: MCF-7 cells, wild type; experiment: Intracellular accumulation of mitoxantrone under alternating electric fields; assay type: cell-based, human; conditions: 2 μM, 1 h; 150 kHz, 1.62 V/cm vs. no field
Method: (§1) The intracellular accumulation of mitoxantrone was then measured.

[8] = tested on: MCF-7 cells, mitoxantrone resistant; experiment: as above; assay type: cell-based, human; conditions: 2 μM, 1 h; 150 kHz, 1.62 V/cm vs. no field
Method: as §1

[9] = tested on: glioblastoma patients; experiment: Survival of glioblastoma patients, TTFields plus temozolomide vs. temozolomide alone; assay type: in vivo, human; conditions: after 1 year of TTFields exposure
Description: The treatment of glioblastoma (GBM) using alternating electric fields is a novel, validated therapy that has become an additional modality (after surgery chemoradiation and chemotherapy) for anti-cancer treatments. Intermediate frequency alternating electric fields (100-500 kHz) have been studied in detail. […] In the context of treating tumors, alternating electric fields at these frequencies are often referred to as “tumor treating fields” or “TTFields.”
Recurrence of GBM is inevitable and the median time to first recurrence despite standard therapy is approximately 7 months. […] TTFields compliance (≥75% vs. <75%) was an independent predictor of overall survival in the retrospective analysis of the full EF-14 trial dataset and the duration of use of TTFields was also found to affect overall survival. […] Namely, a correlation between the length of TTFields exposure and the duration of its effect on cell membrane permeability after cessation of TTFields was observed. At lengths of TTFields exposure of 0.5-3 h, the duration in BLI augmentation (compared to no TTFields conditions) lasted about 5 min. However, at TTFields exposures of 12-25 h, this difference in BLI between TTFields and no TTFields conditions lasted for more than 20 min.

[10] = tested on: U87-MG/GFP-Luc cells; experiment: Drug sensitivity and synergy with TTFields; assay type: cell-based, human; conditions: TTFields for 3 days vs. no TTFields
[11] = tested on: pcGBM2/GFP-Luc cells; conditions: TTFields for 3 days vs. no TTFields
[12] = tested on: GBM39 cells; experiment: Drug sensitivity with TTFields; assay type: cell-based, human; conditions: TTFields for 3 days vs. no TTFields
[13] = tested on: U87-MG/eGFP-fLuc cells; experiment: Annexin-V-APC binding (apoptosis) by fluorescence microscopy; assay type: cell-based, human; conditions: 21 μM, TTFields-unexposed
Method: To test if the imposition of TTFields affects cell membrane properties, and thus membrane permeability, the effect of TTFields on the behavior of fluorescently tagged reagents that bind to the cellular membrane was determined. Initially, the impact of TTFields on the binding of Annexin-V-APC to the membrane of U87-MG/eGFP-fLuc cells was measured. Annexin-V-APC binding is a signature of early apoptosis which is characterized by ruffling of the membrane.

[14] = tested on: human glioblastoma cells; experiment: Growth inhibition by TTFields in conjunction with Withaferin A; assay type: cell-based
Description: In this figure, 5-ALA=5-aminolevulinic acid; Ethidium D=ethidium bromide; and FITC=fluorescein isothiocyanate.

[15] = tested on: MDA-MB-435 cells, wild type; experiment: Intracellular accumulation of doxorubicin under alternating electric fields; assay type: cell-based, human; conditions: 10 μM, 1 h; 150 kHz, 1.62 V/cm vs. no field
[16] = tested on: MDA-MB-235 cells; experiment: Drug sensitivity and synergy with TTFields; assay type: cell-based; conditions: TTFields for 3 days vs. no TTFields
[17] = tested on: MDA-MB-435 cells, doxorubicin resistant; experiment: Intracellular accumulation of doxorubicin under alternating electric fields; assay type: cell-based, human; conditions: 10 μM, 1 h; 150 kHz, 1.62 V/cm vs. no field
[18] = tested on: MES-SA cells; experiment: Intracellular accumulation of doxorubicin under 150 kHz alternating electric fields; assay type: cell-based; conditions: 10 μM, 1 h, 1.62 V/cm RMS, 24 hours vs. no field
[19] = tested on: U87-MG GBM on PCS-201 fibroblast co-cultures; experiment: 5-ALA uptake (PpIX fluorescence) in U87-MG GBM on PCS-201 fibroblast co-cultures
[20] = tested on: U87-MG cells; experiment: 5-ALA uptake measured by PpIX fluorescence, single U87-MG culture; assay type: cell-based, human
Method: Experiments were performed to determine the effects of TTFields on uptake of 5-ALA (as measured by PpIX accumulation and its resultant fluorescence) in glioblastoma cells. Because it is difficult to distinguish the margin between tumor and normal cells using the present 5-ALA bioassay, the measurement of PpIX fluorescence was used to address this issue. Investigations were run to determine whether permeation of 5-ALA through the cellular membrane and into the glioblastoma cells could be increased with TTFields exposure. U87-MG cells were exposed or unexposed to TTFields, each for durations of 6-24 h.
All monovariant statistical comparisons between no TTFields vs. TTFields samples done by Student's t-test for n=3 experiments per time point.

[21] = tested on: KR158B; experiment: Bioluminescence of Renilla luciferase-expressing astrocytoma cells, TTFields vs. no TTFields; assay type: cell-based, murine
Method: Studies were then performed that validate the hypothesis.
Renilla luciferase activity is not dependent upon ATP and magnesium (as opposed to firefly luciferase). Thus, it is believed that the induction of bioluminescence by TTFields was not due to alterations in endogenous pools of ATP.

T1 sequence (P08659 whole entry): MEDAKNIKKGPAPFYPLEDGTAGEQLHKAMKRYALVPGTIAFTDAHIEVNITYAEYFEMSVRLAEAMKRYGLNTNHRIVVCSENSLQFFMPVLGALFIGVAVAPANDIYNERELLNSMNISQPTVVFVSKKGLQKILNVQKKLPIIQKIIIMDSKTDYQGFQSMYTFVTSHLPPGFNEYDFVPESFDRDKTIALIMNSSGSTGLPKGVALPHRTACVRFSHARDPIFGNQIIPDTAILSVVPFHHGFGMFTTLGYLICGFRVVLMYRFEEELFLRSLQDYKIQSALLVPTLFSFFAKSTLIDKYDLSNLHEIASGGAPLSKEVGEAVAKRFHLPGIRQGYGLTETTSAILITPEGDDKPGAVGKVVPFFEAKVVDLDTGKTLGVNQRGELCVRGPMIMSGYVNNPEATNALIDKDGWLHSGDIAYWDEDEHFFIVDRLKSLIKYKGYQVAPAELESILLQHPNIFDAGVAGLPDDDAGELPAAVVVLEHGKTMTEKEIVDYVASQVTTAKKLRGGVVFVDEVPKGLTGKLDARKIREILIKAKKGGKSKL

O=C(O)[C@H]1CSC(c2nc3ccc(O)cc3s2)=N1 [D-luciferin]
permeation of the luciferase substrate through the plasma membrane (bioluminescence) [1]: increased permeation | uptake with field and after cessation of the field [2]: reversibly increase uptake

CCc1c2c(nc3ccc(OC(=O)N4CCC(N5CCCCC5)CC4)cc13)-c1cc3c(c(=O)n1C2)COC(=O)[C@]3(O)CC [Irinotecan]
sensitivity of cells to the drug [3]: improves the sensitivity

firefly luciferase: purified firefly luciferase (SRE0045-2MG) purchased from Sigma Aldrich
activity of purified firefly luciferase [4]: significantly decreased activity

Cc1c2oc3c(C)c(N)cc(C(=O)N[C@@H]4C(=O)N[C@H](C(C)C)C(=O)N5CCC[C@H]5C(=O)N(C)CC(=O)N(C)[C@@H](C(C)C)C(=O)O[C@@H]4C)c3nc-2c(C(=O)N[C@@H]2C(=O)N[C@H](C(C)C)C(=O)N3CCC[C@H]3C(=O)N(C)CC(=O)N(C)[C@@H](C(C)C)C(=O)O[C@@H]2C)c(N)c1=O [7-AAD, 7-Aminoactinomycin D]
percentage of cells with increased accumulation of 7-AAD ([5]; 1.62V/cm, 7-AAD added 15 minutes after fields turned off): ~20% | percentage of cells with increased accumulation of 7-AAD ([5]; 1.62 V/cm, 7-AAD added for the last 15 minutes of the field): ~66% | percentage of cells with increased accumulation of 7-AAD [6]: significant increase in accumulation

O=C1c2c(O)ccc(O)c2C(=O)c2c(NCCNCCO)ccc(NCCNCCO)c21 [mitoxantrone]
intracellular accumulation [7]: increased | intracellular accumulation [8]: increased

Cn1nnc2c(C(N)=O)ncn2c1=O [Temozolomide]
percent increase in overall survival [9]: 32%

O=NN(CCCl)C(=O)NC1CCCCC1 [Lomustine]
sensitivity of cells to the drug [10]: improves the sensitivity | sensitivity of cells to the drug [11]: improves the sensitivity | sensitivity of cells to the drug [12]: improves the sensitivity

CC1=C(CO)C(=O)O[C@@H]([C@@H](C)[C@H]2CC[C@H]3[C@@H]4C[C@H]5O[C@]56[C@@H](O)C=CC(=O)[C@]6(C)[C@H]4CC[C@]23C)C1 [Withaferin A]
Annexin-V-APC binding (positive control for apoptosis) [13]: could be visualized | growth inhibition in conjunction with TTFields [14]: synergistically inhibited the growth

COc1cccc2c1C(=O)c1c(O)c3c(c(O)c1C2=O)C[C@@](O)(C(=O)CO)C[C@@H]3O[C@H]1C[C@H](N)[C@H](O)[C@H](C)O1 [doxorubicin]
intracellular accumulation [15]: increased | sensitivity of cells to the drug [16]: improves the sensitivity | intracellular accumulation [17]: increased | increase of intracellular accumulation [18]: more than 2 ×

NCC(=O)CCC(=O)O [5-ALA, 5-aminolevulinic acid]
uptake with field and after cessation of the field [2]: reversibly increase uptake | rate of PpIX fluorescence intensity increase ([19]; TTFields 2, 6, 24 h vs. unexposed co-cultures, p<0.001): significantly augmented | tumor to normal cell ratio for PpIX fluorescence ([19]; TTFields vs. no TTFields): significantly enhances | uptake (PpIX fluorescence) ([20]; 6 h TTFields (200 kHz) vs. no TTFields, p=0.047): significantly increased uptake | uptake (PpIX fluorescence) ([20]; 24 h TTFields (200 kHz) vs. no TTFields, p=0.011): increase was maintained

Oc1ccc(Cc2nc3c(Cc4ccccc4)nc(-c4ccc(O)cc4)cn3c2O)cc1 [coelenterazine]
permeation of the luciferase substrate through the plasma membrane (bioluminescence) [21]: increased permeation
